Several values for one entry are separate records, joined by “and”; a condition that tells them apart may be missing. Identical values can stand only once. Like-named read-outs stand apart in the source and are kept apart here. Where no end group is shown, it is not given here.
Assays:
ME180 cells = experiment: toxicity (XTT) in transmission inhibition assay; settings: for TOXICITY VALUES (XTT), single samples: samples 1-3; for TC50 (concentration at which 50% of cells are eliminated): interpolation from % CC
Excerpt: (§1) ME180 cells, a cervical epithelial cell line, were obtained from the American Type Culture Collection. These cells were thawed from liquid nitrogen and grown in RPMI 1640 medium supplemented with 10t fetal bovine serum, glutamine and antibiotics. The cells were adherent and were trypsinized (0.5% trypsin in HBSS) to remove them from the flask for passaging and use in assays. For use in the microtiter transmission inhibition assay, ME180 cells were trypsinized, washed and seeded in 96-well flat bottom microtiter plates (COSTAR) at a density of 5×10^3 cells per well. The cells were incubated at 37° C. for 24 hours prior to the tart of the assay. H9 cells chronically infected with he SK1 isolate of HIV-1 were treated with 200 μg/ml mitomycin C for 60 minutes at 37° C. After treatment the cells were washed three times with tissue culture medium. The chronically infected lymphocytes were added to each well at a density of 2×10^4 cells per well. The concentration of mitomycin C used in the treatment of the lymphocytes was chosen to allow lymphocyte survival for the period of time required to transmit virus to the uninfected ME180 cells, but to die prior to the time of assay so as not to contribute to the p24 signal used as the endpoint (see below). In the transmission assay the lytic peptides D4E1 and D2A21, with and without 150 μg/ml pig mucin, were added prior to the addition of chronically infected cells or were mixed with the chronically infected cells prior to their addition to the monolayer of ME180 cells. Mucin was included because it is an abundant constituent of the normal vaginal secretions of a human being, thus any chemotherapeutic agent targeting HIV should be active in its presence if it is to have clinical value. […] The lymphocytes and peptide were co-cultured with the ME180 cells for 6 hours and then removed by washing the ME180 monolayer four times with PBS. The plate was then incubated at 37° C. for six days. Medium was removed and changed every 48 hours during the incubation stage. No further peptide was added after the initial dose. At six days post-co-cultivation, the supernatant was removed from the wells and evaluated for the quantity of p24 antigen by ELISA. The ELISA was performed according to the manufacturer's recommendations. The amount of virus production in wells treated with various concentrations of the peptides was evaluated with appropriate cell and virus controls. Data are reported as a percent of virus control at each drug concentration. Linear regression analysis was used to calculate the […] and IC95 concentrations of the transmission inhibitor. […] TI represents the toxicity index, which is the ratio of the TC50/IC50, and is an indication of the relative concentrations window that exists between efficacy and toxicity.

[1] = toxicity (XTT) in transmission inhibition assay; settings: human, ME180 cells
Excerpt: as §1

SK1 isolate of HIV-1 = system: SK1 isolate of HIV-1
Excerpt: as §1

[2] = 0.32 μg/ml, with 150 μg/ml pig mucin
[3] = 1 μg/ml, with 150 μg/ml pig mucin
[4] = 3.2 μg/ml, with 150 μg/ml pig mucin
[5] = 10 μg/ml, with 150 μg/ml pig mucin
[6] = 32 μg/ml, with 150 μg/ml pig mucin
[7] = 100 μg/ml, with 150 μg/ml pig mucin

## FAKKFAKKFKKFAKKFAKFAFAF [D2A21]
ME180 cells; 0.32 μg/ml, no mucin
  TOXICITY VALUES (XTT), MEAN: 0.515 O.D. @ 450/650 nm
  TOXICITY VALUES (XTT), single samples: 0.541 O.D. @ 450/650 nm and 0.497 O.D. @ 450/650 nm and 0.506 O.D. @ 450/650 nm
ME180 cells; [2]
  % CC (XTT, percent of cell control): 97.6%
  TOXICITY VALUES (XTT), MEAN: 0.515 O.D. @ 450/650 nm
  TOXICITY VALUES (XTT), single samples: 0.541 O.D. @ 450/650 nm and 0.497 O.D. @ 450/650 nm and 0.506 O.D. @ 450/650 nm
ME180 cells; 1 μg/ml, no mucin
  TOXICITY VALUES (XTT), MEAN: 0.528 O.D. @ 450/650 nm
  TOXICITY VALUES (XTT), single samples: 0.550 O.D. @ 450/650 nm and 0.514 O.D. @ 450/650 nm and 0.520 O.D. @ 450/650 nm
ME180 cells; [3]
  % CC (XTT, percent of cell control): 100.1%
  TOXICITY VALUES (XTT), MEAN: 0.528 O.D. @ 450/650 nm
  TOXICITY VALUES (XTT), single samples: 0.550 O.D. @ 450/650 nm and 0.514 O.D. @ 450/650 nm and 0.520 O.D. @ 450/650 nm
ME180 cells; 3.2 μg/ml, no mucin
  TOXICITY VALUES (XTT), MEAN: 0.515 O.D. @ 450/650 nm
  TOXICITY VALUES (XTT), single samples: 0.525 O.D. @ 450/650 nm and 0.513 O.D. @ 450/650 nm and 0.506 O.D. @ 450/650 nm
ME180 cells; [4]
  % CC (XTT, percent of cell control): 97.6%
  TOXICITY VALUES (XTT), MEAN: 0.515 O.D. @ 450/650 nm
  TOXICITY VALUES (XTT), single samples: 0.525 O.D. @ 450/650 nm and 0.513 O.D. @ 450/650 nm and 0.506 O.D. @ 450/650 nm
ME180 cells; 10 μg/ml, no mucin
  TOXICITY VALUES (XTT), MEAN: 0.506 O.D. @ 450/650 nm
  TOXICITY VALUES (XTT), single samples: 0.518 O.D. @ 450/650 nm and 0.506 O.D. @ 450/650 nm and 0.491 O.D. @ 450/650 nm
ME180 cells; [5]
  % CC (XTT, percent of cell control): 95.9%
  TOXICITY VALUES (XTT), MEAN: 0.506 O.D. @ 450/650 nm
  TOXICITY VALUES (XTT), single samples: 0.518 O.D. @ 450/650 nm and 0.508 O.D. @ 450/650 nm and 0.491 O.D. @ 450/650 nm
ME180 cells; 32 μg/ml, no mucin
  TOXICITY VALUES (XTT), MEAN: 0.322 O.D. @ 450/650 nm
  TOXICITY VALUES (XTT), single samples: 0.342 O.D. @ 450/650 nm and 0.315 O.D. @ 450/650 nm and 0.308 O.D. @ 450/650 nm
ME180 cells; [6]
  % CC (XTT, percent of cell control): 61.04%
  TOXICITY VALUES (XTT), MEAN: 0.322 O.D. @ 450/650 nm
  TOXICITY VALUES (XTT), single samples: 0.342 O.D. @ 450/650 nm and 0.315 O.D. @ 450/650 nm and 0.308 O.D. @ 450/650 nm
ME180 cells; 100 μg/ml, no mucin
  TOXICITY VALUES (XTT), MEAN: 0.087 O.D. @ 450/650 nm
  TOXICITY VALUES (XTT), single samples: 0.061 O.D. @ 450/650 nm and 0.083 O.D. @ 450/650 nm and 0.096 O.D. @ 450/650 nm
ME180 cells; [7]
  % CC (XTT, percent of cell control): 16.4%
  TOXICITY VALUES (XTT), MEAN: 0.087 O.D. @ 450/650 nm
  TOXICITY VALUES (XTT), single samples: 0.081 O.D. @ 450/650 nm and 0.083 O.D. @ 450/650 nm and 0.096 O.D. @ 450/650 nm
ME180 cells; no mucin
  TC50 (concentration at which 50% of cells are eliminated): TC50 = 39 μg/ml
ME180 cells; with 150 μg/ml pig mucin
  TC50 (concentration at which 50% of cells are eliminated): TC50 39 μg/ml
[1]
  viability at 6 h, 0.32 µg/mL: 97.6%
  viability at 6 h, 1 µg/mL: 100%
  viability at 6 h, 3.2 µg/mL: 97.6%
  viability at 6 h, 10 µg/mL: 95.9%
  viability at 6 h, 32 µg/mL: 61%
  viability at 6 h, 100 µg/mL: 16.4%
SK1 isolate of HIV-1; 0.32 μg/ml, no mucin
  % VC (p24, percent of virus control): 81.8%
SK1 isolate of HIV-1; [2]
  % VC (p24, percent of virus control): 33.7%
SK1 isolate of HIV-1; 1 μg/ml, no mucin
  % VC (p24, percent of virus control): 67.3%
SK1 isolate of HIV-1; [3]
  % VC (p24, percent of virus control): 27.7%
SK1 isolate of HIV-1; 3.2 μg/ml, no mucin
  % VC (p24, percent of virus control): 40.6%
SK1 isolate of HIV-1; [4]
  % VC (p24, percent of virus control): 18.8%
SK1 isolate of HIV-1; 10 μg/ml, no mucin
  % VC (p24, percent of virus control): 27.4%
SK1 isolate of HIV-1; [5]
  % VC (p24, percent of virus control): 10.1%
SK1 isolate of HIV-1; 32 μg/ml, no mucin
  % VC (p24, percent of virus control): 2.2%
SK1 isolate of HIV-1; [6]
  % VC (p24, percent of virus control): 0.0%
SK1 isolate of HIV-1; 100 μg/ml, no mucin
  % VC (p24, percent of virus control): 0.0%
SK1 isolate of HIV-1; no mucin
  TI (toxicity index, TC50/IC50): TI = 15
SK1 isolate of HIV-1; with 150 μg/ml pig mucin
  TI (toxicity index, TC50/IC50): TI = 139
